Source: US20110189149A1, “New Uses of Lactic Acid Bacteria and Bifidobacteria” (priority 2008, published 2011)

Assay: Intraperitoneal insulin sensitivity test (IPIST)
Assay type: in vivo, mice
Details: fasted 16 hours, 0.5 IU/kg intraperitoneal, after 30 minutes
Method: Nineteen weeks after the beginning of the study, 5 mice in each group (control diet and HFD) were weighed and subjected to an intraperitoneal insulin sensitivity test (IPIST, the protocol of which is detailed below) to check the insulin resistance of the mice. At week 20, glycaemia tests, the protocol of which is detailed below, were performed. Just after the end of these tests, mice received daily 10^9 CFU of Lactobacillus acidophilus NCFM/mouse/day by oral gavage, for 3 weeks. At week 23, animals were sacrificed after weighing and after determination of glycaemia.
Mice were fasted for 16 hours and received an intraperitoneal injection of human recombinant insulin (0.5 International Units/kg body weight); Actrapid®, Novo-Nordisk, Bagsvaerd, Denmark). Blood glucose was assayed immediately before and at 15, 30, 45, and 60 minutes after injection using a digital glucometer (Medisense Optium, Abbott, Rungis, France).

## insulin: human recombinant insulin (Actrapid, Novo-Nordisk) injected intraperitoneally in the IPIST test
Control diet group
  decrease of glycaemia after insulin injection: around 70%
high-fat diet group
  decrease of glycaemia after insulin injection: around 45%
